Experimental data taken from US20060079453A1, “Hla binding peptides and their uses” (priority 2002, published 2006).
Read-outs that look alike come from different tables or passages of the source. No end group written: not given here.

Experiments:
Test in all cases: biochemical
Type in all cases: binding
HLA-DR DRB1*0301 (DR3) = HLA-DR DRB1*0301 (DR3) (Homo sapiens, UniProt P01903+P01911, A100K/A102G/A103R/A169T/F55Y/I96L/K41T/L162R/M171V/P40S/Q125H/Q178H/Q39Y/R42S/S66N/T106N/T262R/W38E/Y61H)
HLA-DR DRB1*1501 (DR15) = HLA-DR DRB1*1501 (DR15) (Homo sapiens, UniProt P01903+P01911)
HLA-DR DRB1*0701 (DR7) = HLA-DR DRB1*0701 (DR7) (Homo sapiens, UniProt P01903+P01911, A100R/A102G/A103Q/D57E/D86V/E43K/F76Y/K127E/L162R/M171V/P40G/Q125H/Q99D/R33Q/R42Y/R54Q/S133A/S66F/T210M/V115G/Y107V/Y59L/Y89S)
HLA-DR DRB1*0101 (DR1) = HLA-DR DRB1*0101 (DR1) (Homo sapiens, UniProt P01903+P01911, A100R/D57E/F55L/F60I/F76Y/I96L/L162R/M171V/P40L/Q125E/R42F/V115G/Y59C)
HLA-DR DRB1*1302 (DR13) = HLA-DR DRB1*1302 (DR13) (Homo sapiens, UniProt P01903+P01911, A100E/A169T/K41T/L162R/M171V/P40S/Q125H/Q178H/Q39Y/Q99D/R42S/S66N/T262R/V115G/W38E/Y61H)
HLA-DR DRB1*1101 (DR11) = HLA-DR DRB1*1101 (DR11) (Homo sapiens, UniProt P01903+P01911, A100R/A169T/A87E/I96F/K41T/L162R/M171V/P40S/Q125H/Q178H/Q39Y/Q99D/R42S/S66Y/T262R/V115G/W38E)
HLA-DR DRB3*0101 (DR52) = HLA-DR DRB3*0101 (DR52) (Homo sapiens, UniProt P01903+P79483)
HLA-DR DRB1*0401 (DR4) = HLA-DR DRB1*0401 (DR4) (Homo sapiens, UniProt P01903+P01911, A100K/A169T/F76Y/I96L/K127E/L162R/M171V/N62H/P40V/Q125Y/R42H/S133A/S149N/S66Y/V115G/V209L/W38E)
HLA-DR DRB1*0901 (DR9) = HLA-DR DRB1*0901 (DR9) (Homo sapiens, UniProt P01903+P01911, A100R/A103E/D57H/D86V/F55Y/F60I/F76Y/I96F/K127E/L162R/M171V/P40D/Q125H/Q99R/R33Q/R42F/S133A/S66N/T210M/V115G/W38K/Y107V/Y59G/Y89S); conditions: DRB1 *0901
HLA-DR DRB1*0405 (DR4) = HLA-DR DRB1*0405 (DR4) (Homo sapiens, UniProt P01903+P01911, A100R/A169T/D86S/F76Y/I96L/K127E/L162R/M171V/N62H/P40V/Q125Y/R42H/S133A/S149N/S66Y/V115G/V209L/W38E)
HLA-DR DRB5*0101 (DR51) = HLA-DR DRB5*0101 (DR51) (Homo sapiens, UniProt P01903+Q30154)
HLA-DR DRB4*0101 (DR53) = HLA-DR DRB4*0101 (DR53) (Homo sapiens, UniProt P01903+P13762, G164S)

Chain of HLA-DR DRB1*1302 (DR13) (P01903 26-254 limits assumed, other chains not shown): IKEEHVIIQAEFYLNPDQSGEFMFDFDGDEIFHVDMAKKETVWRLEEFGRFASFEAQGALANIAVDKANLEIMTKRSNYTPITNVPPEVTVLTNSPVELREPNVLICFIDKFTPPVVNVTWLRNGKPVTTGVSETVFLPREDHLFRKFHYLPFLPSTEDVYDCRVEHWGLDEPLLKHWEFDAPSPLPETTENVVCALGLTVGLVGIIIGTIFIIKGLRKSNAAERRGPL
Chain of HLA-DR DRB1*1101 (DR11) (P01903 26-254 limits assumed, other chains not shown): as above
Chain of HLA-DR DRB1*0301 (DR3) (P01903 26-254 limits assumed, other chains not shown): as above

| Molecule | IC50 (HLA-DR DRB1*0301 (DR3)) [µM] | IC50 (HLA-DR DRB1*1501 (DR15); DRBI *1501) [µM] | IC50 (HLA-DR DRB1*0701 (DR7); DRB1 *0701) [µM] | IC50 (HLA-DR DRB1*0101 (DR1); DRB1 *0101) [nM] | IC50 (HLA-DR DRB1*1302 (DR13); DRBI *1302) [µM] | IC50 (HLA-DR DRB1*1101 (DR11); DRB1 *1101) [nM] | IC50 (HLA-DR DRB3*0101 (DR52)) [µM] | IC50 (HLA-DR DRB1*0401 (DR4); DRB1 *0401) [µM] | IC50 (HLA-DR DRB1*0901 (DR9)) [µM] | IC50 (HLA-DR DRB1*0405 (DR4); DRB1 *0405) [µM] | IC50 (HLA-DR DRB1*1501 (DR15)) [µM] | IC50 (HLA-DR DRB5*0101 (DR51)) [µM] | IC50 (HLA-DR DRB1*0701 (DR7)) [µM] | IC50 (HLA-DR DRB1*1302 (DR13)) [µM] | IC50 (HLA-DR DRB1*1101 (DR11)) [nM] | IC50 (HLA-DR DRB1*0405 (DR4)) [µM] | IC50 (HLA-DR DRB4*0101 (DR53)) [nM] | IC50 (HLA-DR DRB1*0401 (DR4)) [µM] | also measured |
| --- | --- | --- | --- | --- | --- | --- | --- | --- | --- | --- | --- | --- | --- | --- | --- | --- | --- | --- | --- |
| CC[C@H](C)[C@H](NC(=O)CNC(=O)[C@H](CC(C)C)NC(=O)[C@H](CC(C)C)NC(=O)[C@H](CCCNC(=N)N)NC(=O)[C@H](CO)NC(=O)[C@@H](NC(=O)[C@H](Cc1ccc(O)cc1)NC(=O)[C@@H]1CCCN1C(=O)[C@H](CO)NC(=O)CNC(=O)[C@@H](NC(=O)CN)C(C)C)C(C)C)C(=O)N[C@@H](CS)C(=O)N[C@@H](CC(C)C)C(=O)O | 168 | 0.046 | 0.19 | 19 | 0.955 | 696 | 149 | 1.57 | 2.61 | 4.16 | – | – | – | – | – | – | – | – | – |
| APPRLITDSRVLERY | 0.015 | – | 0.629 | 10100 | 0.092 | 2750 | 0.71 | 6.68 | 8.39 | 7.77 | – | – | – | – | – | – | – | – | IC50 (HLA-DR DRB5*0101 (DR51); DRB5 *0101): 0.698 µM; IC50 (HLA-DR DRB4*0101 (DR53); DRB4 *0101): 2260 nM |
| ELVSEFSRMARDPQ | – | 7.89 | 21.3 | 201 | > 71.4 | 4570 | 15.8 | 0.12 | 91.6 | 15.1 | – | – | – | – | – | – | – | – | IC50 (HLA-DR DRB4*0101 (DR53); DRB4 *0101): 970 nM |
| EMLQNIFAIFRQDSS | 9.54 | 1.72 | 3.31 | 395 | 0.061 | 36800 | 0.726 | 0.685 | 9.74 | 0.456 | – | – | – | – | – | – | – | – | IC50 (HLA-DR DRB5*0101 (DR51); DRB5 *0101): 3.19 µM; IC50 (HLA-DR DRB4*0101 (DR53); DRB4 *0101): 164 nM |
| GAALGGAARALAHGV | 26.9 | – | – | – | – | – | > 71 | – | – | – | 4.48 | 25.4 | 29.8 | 19.3 | 168 | > 13 | – | – | – |
| GAPLAGAARALAHGV | 2.98 | – | – | – | – | – | > 71 | – | – | – | 2.81 | 7.69 | 8.18 | 7.21 | 9.5 | > 13 | 2960 | 39.9 | – |
| GAPLGAAARALAHGV | – | – | – | – | – | – | > 71 | – | – | – | 3.92 | 4.5 | 6.49 | 15.1 | 36 | > 13 | 16500 | – | IC50 (HLA-DR DRB1*0101 (DR1)): 226 nM |
| GAPLGGAAAALAHGV | 82.1 | – | – | – | – | – | > 51.1 | – | – | – | 7.68 | 12.9 | 31.9 | 23.8 | 43800 | > 3.37 | 31 | 5.47 | – |
| GAPLGGAARAAAHGV | 378 | – | – | – | – | – | > 51.1 | – | – | – | > 8.67 | 42.5 | 31.3 | > 23.5 | 3630 | > 3.37 | 41400 | 25.3 | – |
| GAPLGGAARALAAGV | 23.3 | – | – | – | – | – | > 51.1 | – | – | – | 5.71 | 8.35 | 7.42 | 23.2 | 45 | > 3.37 | 3860 | 11.3 | – |
| GAPLGGAARALAHGV | – | 1.61 | – | 690 | 8.74 | 24 | > 71 | – | – | > 13 | – | – | – | – | – | – | – | – | IC50 (HLA-DR DRB5*0101 (DR51); DRB5 *0101): 12 µM |
| GAPLGGAARLLAHGV | 23 | – | – | – | – | – | > 51.1 | – | – | – | 0.631 | – | 57.5 | 29.4 | 80 | > 3.37 | 2550 | 15 | IC50 (HLA-DR DRB1*0101 (DR1)): 398 nM |
